Measurements: patent US20250346605A1, “NEW DERIVATIVES FOR TREATING TRPM3 MEDIATED DISORDERS” (Katholieke Universiteit Leuven, priority 2022, published 2025)
pIC50: −log10 of the molar value.

The molecules below were run against T1, mouse TRPM3α2 (mTRPM3) ion channel (Mus musculus, UniProt J9SQF3) (assay: TRPM3 ion channel driven Ca2+ uptake (Fluo-4 AM assay), PS-stimulated overexpressing HEK293 cells). Settings: flip-in HEK293 overexpressing TRPM3, stimulated with Pregnenolone sulfate (PS) 50 μM, activity ranges A, B, C.
T1 construct: expressed in transfected cells; host or cells: Flp-In HEK293
T1 sequence (J9SQF3 1-1709 isoform J9SQF3-12): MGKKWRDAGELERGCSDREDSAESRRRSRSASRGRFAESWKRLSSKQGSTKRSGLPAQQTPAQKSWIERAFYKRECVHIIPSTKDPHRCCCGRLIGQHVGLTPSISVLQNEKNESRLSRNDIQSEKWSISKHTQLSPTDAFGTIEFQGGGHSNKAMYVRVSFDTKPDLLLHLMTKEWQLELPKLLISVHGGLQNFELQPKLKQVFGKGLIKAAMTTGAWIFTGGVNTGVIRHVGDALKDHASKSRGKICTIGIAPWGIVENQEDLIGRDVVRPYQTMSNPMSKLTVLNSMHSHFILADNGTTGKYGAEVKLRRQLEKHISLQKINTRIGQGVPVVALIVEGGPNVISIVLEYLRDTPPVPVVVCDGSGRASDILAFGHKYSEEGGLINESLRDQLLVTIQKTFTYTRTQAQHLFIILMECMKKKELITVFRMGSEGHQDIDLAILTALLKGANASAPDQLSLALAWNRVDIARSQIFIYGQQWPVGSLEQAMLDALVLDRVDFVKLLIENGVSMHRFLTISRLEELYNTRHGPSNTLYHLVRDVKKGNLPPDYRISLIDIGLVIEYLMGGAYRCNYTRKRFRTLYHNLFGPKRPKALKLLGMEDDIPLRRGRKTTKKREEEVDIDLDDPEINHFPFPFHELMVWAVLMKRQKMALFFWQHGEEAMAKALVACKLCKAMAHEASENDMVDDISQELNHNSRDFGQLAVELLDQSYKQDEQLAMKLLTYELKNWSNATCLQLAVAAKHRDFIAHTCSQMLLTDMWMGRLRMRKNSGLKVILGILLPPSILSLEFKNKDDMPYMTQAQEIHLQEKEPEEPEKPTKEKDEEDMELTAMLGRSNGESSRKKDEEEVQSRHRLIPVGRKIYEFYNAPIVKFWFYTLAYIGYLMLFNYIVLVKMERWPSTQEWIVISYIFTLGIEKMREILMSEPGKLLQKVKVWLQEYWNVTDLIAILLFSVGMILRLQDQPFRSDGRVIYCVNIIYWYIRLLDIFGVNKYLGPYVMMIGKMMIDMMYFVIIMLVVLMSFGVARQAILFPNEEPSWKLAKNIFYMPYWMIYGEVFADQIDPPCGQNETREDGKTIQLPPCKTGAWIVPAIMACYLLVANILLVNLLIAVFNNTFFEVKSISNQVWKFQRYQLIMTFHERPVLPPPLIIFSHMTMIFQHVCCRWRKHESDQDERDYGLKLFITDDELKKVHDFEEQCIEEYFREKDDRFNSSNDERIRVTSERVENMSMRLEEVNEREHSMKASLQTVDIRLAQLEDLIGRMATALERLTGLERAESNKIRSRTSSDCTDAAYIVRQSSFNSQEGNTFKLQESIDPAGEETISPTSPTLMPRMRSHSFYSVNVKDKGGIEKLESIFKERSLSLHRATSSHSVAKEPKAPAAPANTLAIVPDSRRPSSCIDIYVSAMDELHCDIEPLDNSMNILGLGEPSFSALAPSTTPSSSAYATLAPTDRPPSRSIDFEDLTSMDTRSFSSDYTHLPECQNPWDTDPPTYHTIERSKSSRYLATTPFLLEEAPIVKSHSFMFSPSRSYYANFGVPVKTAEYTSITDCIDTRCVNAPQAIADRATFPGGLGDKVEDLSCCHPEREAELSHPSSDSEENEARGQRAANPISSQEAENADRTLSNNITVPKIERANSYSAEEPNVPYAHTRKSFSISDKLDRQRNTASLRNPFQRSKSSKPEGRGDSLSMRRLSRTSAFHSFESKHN
Type: cell-based
Procedure: In order to monitor the inhibition of the mouse TRPM3α2 (mTRPM3) ion channel by the compounds of the invention, a cellular system making use of an mTRPM3alpha2 or hTRPM3 overexpressing cell line (flip-in HEK293) was used. The TRPM3 channel was stimulated/opened with Pregnenolone sulfate (PS) (50 μM) which results in Ca^2+ influx.
For mTRPM3, the intracellular Ca^2+ was measured with a Calcium responsive dye, Fluor-4 AMV ester (Invitrogen). Cells were cultured until a confluence of 80-90%, washed with Versene (Invitrogen) and detached from the surface by a short incubation with 0.05% Trypsin (Invitrogen). The trypsination process was stopped by the addition of complete cell culture medium (DMEM, glutamax, 10% FCS, NEAA, Pen-Strep). Cells were collected and resuspended in Krebs buffer without Calcium at RT.
Prior the cell seeding (±2000 cells/well into a black, 384 well plate (Greiner)) the diluted compound was added in the assay plate, together with the PS dissolved in Krebs buffer containing Calcium. […] Directly after cell addition the plates were read on an Envision fluorescence reader (Perkin Elmer) by an Excitation of 485 nm and emission at 535 nm.
Channel inhibition was calculated compared to a non-PS stimulated control versus a condition stimulated with PS (50 μM) with vehicle. The ability of the compounds of the invention to inhibit this activity was determined as: Percentage inhibition=[1-((RFU determined for sample with test compound present−RFU determined for sample with positive control inhibitor) divided by (RFU determined in the presence of vehicle−RFU determined for sample with positive control inhibitor))]*100.
The activities of the Example compounds tested are depicted in the table below. The activity ranges A, B and C refer to IC50 values in the Fluo-4 AM assay as follows: “A”: IC50<1 μM; “B”: 1 μM≤IC50≤20 μM and “C”: IC50>20 μM

Row | Compound | pIC50
1 | Cc1ncsc1COc1cc2c(C(=O)NC(C)C(N)=O)c(C)oc2cn1 (single isomer, unassigned) [Cpd 005-En1, 2-({2-methyl-5-[(4-methyl-1,3-thiazol-5-yl)methoxy]furo[2,3-c]pyridin-3-yl}formamido)propanamide] | 4.70 to 6.00
2 | Cc1ncsc1COc1cc2c(C(=O)NC(C)C(N)=O)c(C)oc2cn1 (single isomer, unassigned) [Cpd 005-En2, 2-({2-methyl-5-[(4-methyl-1,3-thiazol-5-yl)methoxy]furo[2,3-c]pyridin-3-yl}formamido)propanamide] | < 4.70
3 | Cc1oc2cnc(OCc3ccccn3)cc2c1C(=O)NC(C)C(N)=O (single isomer, unassigned) [Cpd 006 _ En1, 2-({2-methyl-5-[(pyridin-2-yl)methoxy]furo[2,3-c]pyridin-3-yl}formamido)propanamide] | 4.70 to 6.00
4 | Cc1oc2cnc(OCc3ccccn3)cc2c1C(=O)NC(C)C(N)=O (single isomer, unassigned) [Cpd 006 _ En2, 2-({2-methyl-5-[(pyridin-2-yl)methoxy]furo[2,3-c]pyridin-3-yl}formamido)propanamide] | 4.70 to 6.00
5 | Cc1oc2cnc(OCc3ccccc3F)cc2c1C(=O)NC(CO)C(N)=O (single isomer, unassigned) [Cpd 008-En1, 2-({5-[(2-fluorophenyl)methoxy]-2-methylfuro[2,3-c]pyridin-3-yl}formamido)-3-hydroxypropanamide] | 4.70 to 6.00
6 | Cc1oc2cnc(OCc3ccccc3F)cc2c1C(=O)NC(CO)C(N)=O (single isomer, unassigned) [Cpd 008-En2, 2-({5-[(2-fluorophenyl)methoxy]-2-methylfuro[2,3-c]pyridin-3-yl}formamido)-3-hydroxypropanamide] | > 6.00
7 | Cc1oc2cnc(OCc3ccccc3F)cc2c1C(=O)NC(C)C(N)=O (single isomer, unassigned) [Cpd 009-En1, 2-({5-[(2-fluorophenyl)methoxy]-2-methylfuro[2,3-c]pyridin-3-yl}formamido)propanamide] | 4.70 to 6.00
8 | Cc1oc2cnc(OCc3ccccc3F)cc2c1C(=O)NC(C)C(N)=O (single isomer, unassigned) [Cpd 009-En2, 2-({5-[(2-fluorophenyl)methoxy]-2-methylfuro[2,3-c]pyridin-3-yl}formamido)propanamide] | 4.70 to 6.00
9 | Cc1ncc(COc2cc3c(C(=O)N[C@@H](CO)C(N)=O)c(C)oc3cn2)s1 [Cpd 001, (2S)-3-hydroxy-2-({2-methyl-5-[(2-methyl-1,3-thiazol-5-yl)methoxy]furo[2,3-c]pyridin-3-yl}formamido)propanamide] | 4.70 to 6.00
10 | Cc1oc2cnc(OCc3ccccc3F)cc2c1C(=O)N[C@H](C(N)=O)[C@@H](C)O [Cpd 002, (2S,3R)-2-({5-[(2-fluorophenyl)methoxy]-2-methylfuro[2,3-c]pyridin-3-yl}formamido)-3-hydroxybutanamide] | > 6.00
11 | Cc1ncc(COc2cc3c(C(=O)N[C@H](C(N)=O)[C@@H](C)O)c(C)oc3cn2)s1 [Cpd 003, (2S,3R)-3-hydroxy-2-({2-methyl-5-[(2-methyl-1,3-thiazol-5-yl)methoxy]furo[2,3-c]pyridin-3-yl}formamido)butanamide] | 4.70 to 6.00
12 | Cc1ncsc1COc1cc2c(C(=O)N[C@H](C(N)=O)[C@@H](C)O)c(C)oc2cn1 [Cpd 004, (2S,3R)-3-hydroxy-2-({2-methyl-5-[(4-methyl-1,3-thiazol-5-yl)methoxy]furo[2,3-c]pyridin-3-yl}formamido)butanamide] | > 6.00
13 | Cc1oc2cnc(OCc3ccccc3F)cc2c1C(=O)NC(C)(C)C(N)=O [Cpd 007, 2-({5-[(2-fluorophenyl)methoxy]-2-methylfuro[2,3-c]pyridin-3-yl}formamido)-2-methylpropanamide] | 4.70 to 6.00
14 | Cc1oc2cnc(OCc3ccccc3)cc2c1C(=O)NC(C)C(N)=O (stereo not shown) [Cpd 010-Enl, 2-{[5-(benzyloxy)-2-methylfuro[2,3-c]pyridin-3-yl]formamido}propanamide] | 4.70 to 6.00

Second part, the molecule after the results:

Row | pIC50 | Compound
15 | < 4.70 | Cc1ncsc1COc1cc2c(C(=O)NC(CO)C(N)=O)c(C)oc2cn1 (single isomer, unassigned) [Cpd 013-En1, 3-hydroxy-2-({2-methyl-5-[(4-methyl-1,3-thiazol-5-yl)methoxy]furo[2,3-c]pyridin-3-yl}formamido)propanamide]
16 | > 6.00 | Cc1ncsc1COc1cc2c(C(=O)NC(CO)C(N)=O)c(C)oc2cn1 (single isomer, unassigned) [Cpd 013-En2, 3-hydroxy-2-({2-methyl-5-[(4-methyl-1,3-thiazol-5-yl)methoxy]furo[2,3-c]pyridin-3-yl}formamido)propanamide]
17 | 4.70 to 6.00 | Cc1oc2cnc(OCc3ccccn3)cc2c1C(=O)NC(CO)C(N)=O (single isomer, unassigned) [Cpd 014-En1, 3-hydroxy-2-({2-methyl-5-[(pyridin-2-yl)methoxy]furo[2,3-c]pyridin-3-yl}formamido)propanamide]
18 | > 6.00 | Cc1oc2cnc(OCc3ccccn3)cc2c1C(=O)NC(CO)C(N)=O (single isomer, unassigned) [Cpd 014-En2, 3-hydroxy-2-({2-methyl-5-[(pyridin-2-yl)methoxy]furo[2,3-c]pyridin-3-yl}formamido)propanamide]
19 | < 4.70 | Cc1oc2cnc(OCc3ccccc3)cc2c1C(=O)NC1CNCC1(F)F (single isomer, unassigned) [Cpd 015-En1, 5-(benzyloxy)-N-(4,4-difluoropyrrolidin-3-yl)-2-methylfuro[2,3-c]pyridine-3-carboxamide]
20 | > 6.00 | Cc1oc2cnc(OCc3ccccc3)cc2c1C(=O)NC1CNCC1(F)F (single isomer, unassigned) [Cpd 015-En2, 5-(benzyloxy)-N-(4,4-difluoropyrrolidin-3-yl)-2-methylfuro[2,3-c]pyridine-3-carboxamide]
21 | 4.70 to 6.00 | Cc1oc2cnc(OCc3ccccc3F)cc2c1C(=O)NC1CCN(CCO)C1=O (single isomer, unassigned) [Cpd 017-En1, 5-[(2-fluorophenyl)methoxy]-N-[1-(2-hydroxyethyl)-2-oxopyrrolidin-3-yl]-2-methylfuro[2,3-c]pyridine-3-carboxamide]
22 | 4.70 to 6.00 | Cc1oc2cnc(OCc3ccccc3F)cc2c1C(=O)NC1CCN(CCO)C1=O (single isomer, unassigned) [Cpd 017-En2, 5-[(2-fluorophenyl)methoxy]-N-[1-(2-hydroxyethyl)-2-oxopyrrolidin-3-yl]-2-methylfuro[2,3-c]pyridine-3-carboxamide]
23 | > 6.00 | Cc1ncsc1COc1cc2c(C(=O)NC3CNCC3(F)F)c(C)oc2cn1 (single isomer, unassigned) [Cpd 021-En1, N-(4,4-difluoropyrrolidin-3-yl)-2-methyl-5-[(4-methyl-1,3-thiazol-5-yl)methoxy]furo[2,3-c]pyridine-3-carboxamide]
24 | < 4.70 | Cc1ncsc1COc1cc2c(C(=O)NC3CNCC3(F)F)c(C)oc2cn1 (single isomer, unassigned) [Cpd 021-En2, N-(4,4-difluoropyrrolidin-3-yl)-2-methyl-5-[(4-methyl-1,3-thiazol-5-yl)methoxy]furo[2,3-c]pyridine-3-carboxamide]
25 | 4.70 to 6.00 | Cc1ncsc1COc1cc2c(C(=O)NC(C)(C)C(N)=O)c(C)oc2cn1 [Cpd 011, 2-methyl-2-({2-methyl-5-[(4-methyl-1,3-thiazol-5-yl)methoxy]furo[2,3-c]pyridin-3-yl}formamido)propanamide]
